In brackets after ≈: the same amount, converted by molar mass.
Key:
[1] = Inhibition of ERK phosphorylation in human KYSE520 cells incubated for 2 hrs by TR-FRET assay; type: cell-based; conditions: KYSE-520, 2 h
[2] = biological target: Voltage-gated inwardly rectifying potassium channel KCNH2 (Homo sapiens, UniProt Q12809); assay: Inhibition of human ERG by fluorescence polarization assay; type: toxicity
[3] = biological target: T1, Tyrosine-protein phosphatase non-receptor type 11 (Homo sapiens, UniProt Q06124); assay: Allosteric inhibition of recombinant human SHP2 using IRS1 peptide and DiFMUP as substrate incubated for 30 mins followed by DiFMUP addition and measured after 30 mins by fluorescence based microplate reader analysis
T1 sequence (Q06124 whole entry): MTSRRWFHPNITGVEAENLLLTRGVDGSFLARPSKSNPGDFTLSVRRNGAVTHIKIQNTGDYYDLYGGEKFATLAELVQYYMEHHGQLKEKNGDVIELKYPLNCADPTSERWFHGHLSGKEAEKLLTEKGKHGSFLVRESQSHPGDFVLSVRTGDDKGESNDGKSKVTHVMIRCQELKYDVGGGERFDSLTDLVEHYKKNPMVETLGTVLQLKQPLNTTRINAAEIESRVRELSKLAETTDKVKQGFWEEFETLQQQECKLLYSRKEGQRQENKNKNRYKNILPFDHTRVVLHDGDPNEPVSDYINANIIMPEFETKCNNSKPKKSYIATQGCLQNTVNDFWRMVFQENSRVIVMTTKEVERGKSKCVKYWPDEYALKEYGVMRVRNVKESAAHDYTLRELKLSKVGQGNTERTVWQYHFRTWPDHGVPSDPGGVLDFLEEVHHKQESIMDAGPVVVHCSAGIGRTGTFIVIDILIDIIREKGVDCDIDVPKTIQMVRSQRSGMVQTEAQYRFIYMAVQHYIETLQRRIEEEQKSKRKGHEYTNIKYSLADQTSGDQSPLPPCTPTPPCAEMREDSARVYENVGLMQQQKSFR

[4] = Apparent permeability of compound at pH 7.4 at 5 uM incubated for 4 hrs by PAMPA based LC-MS/MS analysis; type: ADME
[5] = Volume of distribution at steady state in Sprague-Dawley rat plasma at 0.5 mg/kg, iv and measured upto 24 hrs by LC-MS/MS analysis; type: ADME, organism-based; conditions: read-out: Vdss
KYSE-520 cell line = assay: Antiproliferative activity against human KYSE520 cells assessed as inhibition of cell proliferation incubated for 96 hrs by CellTiter-Glo reagent based assay; type: functional; conditions: KYSE-520, 96 h
[6] = Metabolic stability in human liver microsomes assessed as intrinsic clearance at 1 uM and measured upto 60 mins in presence of NADPH as cofactor by LC-MS/MS analysis; type: ADME, Microsome; conditions: read-out: CLH
[7] = Clearance in Sprague-Dawley rat plasma at 0.5 mg/kg, iv and measured upto 24 hrs by LC-MS/MS analysis; type: ADME, organism-based
[8] = AUC in Sprague-Dawley rat plasma at 1 mg/kg,po administered as 60:20:20 PEG400/DMSO/H2O formulation and measured upto 24 hrs by LC-MS/MS analysis; type: ADME, organism-based; design: time < 24 hrs, dose 1 mg/kg, route po
[9] = Kinetic solubility of compound in FaSSIF by LCMS analysis; type: ADME; conditions: read-out: Kinetic_solubility
[10] = Metabolic stability in Sprague-Dawley rat liver microsomes assessed as intrinsic clearance at 1 uM and measured upto 60 mins in presence of NADPH as cofactor by LC-MS/MS analysis; type: ADME, Microsome; conditions: read-out: CLH
[11] = AUC in Sprague-Dawley rat plasma at 1 mg/kg,po administered as 50:50 PEG400/Labrasol formulation and measured upto 24 hrs by LC-MS/MS analysis; type: ADME, organism-based; design: dose 1 mg/kg, time < 24 hrs, route po
[12] = Cmax in Sprague-Dawley rat plasma at 1 mg/kg, po administered as 60:20:20 PEG400/DMSO/H2O formulation and measured upto 24 hrs by LC-MS/MS analysis; type: ADME, organism-based; design: dose 1 mg/kg, time < 24 hrs, route po
[13] = Apparent permeability of compound in dog MDCK-MDR1 cells by LC-MS/MS analysis; type: ADME, cell-based, Canis lupus familiaris
[14] = Oral bioavailability in Sprague-Dawley rat plasma at 1 mg/kg administered as 60:20:20 PEG400/DMSO/H2O formulation and measured upto 24 hrs by LC-MS/MS analysis; type: ADME, organism-based
[15] = Half life in Sprague-Dawley rat plasma at 0.5 mg/kg, iv and measured upto 24 hrs by LC-MS/MS analysis; type: ADME, organism-based
[16] = Kinetic solubility of compound in FeSSIF by LCMS analysis; type: ADME; conditions: read-out: Kinetic_solubility
[17] = Kinetic solubility of compound in FaSSGF by LCMS analysis; type: ADME; conditions: read-out: Kinetic_solubility
[18] = AUC in Sprague-Dawley rat plasma at 1 mg/kg,po administered as 60:20:20 PEG400/DMSO/H2O formulation and measured upto 24 hrs in presence of Elacridar by LC-MS/MS analysis; type: ADME, organism-based; design: time < 24 hrs, dose 1 mg/kg, route po; conditions: with Elacridar (dose not stated)
[19] = Efflux ratio of apparent permeability […] in dog MDCK-MDR1 cells by LC-MS/MS analysis; type: ADME, cell-based, Canis lupus familiaris

Sequence of Voltage-gated inwardly rectifying potassium channel KCNH2 (Q12809 whole entry): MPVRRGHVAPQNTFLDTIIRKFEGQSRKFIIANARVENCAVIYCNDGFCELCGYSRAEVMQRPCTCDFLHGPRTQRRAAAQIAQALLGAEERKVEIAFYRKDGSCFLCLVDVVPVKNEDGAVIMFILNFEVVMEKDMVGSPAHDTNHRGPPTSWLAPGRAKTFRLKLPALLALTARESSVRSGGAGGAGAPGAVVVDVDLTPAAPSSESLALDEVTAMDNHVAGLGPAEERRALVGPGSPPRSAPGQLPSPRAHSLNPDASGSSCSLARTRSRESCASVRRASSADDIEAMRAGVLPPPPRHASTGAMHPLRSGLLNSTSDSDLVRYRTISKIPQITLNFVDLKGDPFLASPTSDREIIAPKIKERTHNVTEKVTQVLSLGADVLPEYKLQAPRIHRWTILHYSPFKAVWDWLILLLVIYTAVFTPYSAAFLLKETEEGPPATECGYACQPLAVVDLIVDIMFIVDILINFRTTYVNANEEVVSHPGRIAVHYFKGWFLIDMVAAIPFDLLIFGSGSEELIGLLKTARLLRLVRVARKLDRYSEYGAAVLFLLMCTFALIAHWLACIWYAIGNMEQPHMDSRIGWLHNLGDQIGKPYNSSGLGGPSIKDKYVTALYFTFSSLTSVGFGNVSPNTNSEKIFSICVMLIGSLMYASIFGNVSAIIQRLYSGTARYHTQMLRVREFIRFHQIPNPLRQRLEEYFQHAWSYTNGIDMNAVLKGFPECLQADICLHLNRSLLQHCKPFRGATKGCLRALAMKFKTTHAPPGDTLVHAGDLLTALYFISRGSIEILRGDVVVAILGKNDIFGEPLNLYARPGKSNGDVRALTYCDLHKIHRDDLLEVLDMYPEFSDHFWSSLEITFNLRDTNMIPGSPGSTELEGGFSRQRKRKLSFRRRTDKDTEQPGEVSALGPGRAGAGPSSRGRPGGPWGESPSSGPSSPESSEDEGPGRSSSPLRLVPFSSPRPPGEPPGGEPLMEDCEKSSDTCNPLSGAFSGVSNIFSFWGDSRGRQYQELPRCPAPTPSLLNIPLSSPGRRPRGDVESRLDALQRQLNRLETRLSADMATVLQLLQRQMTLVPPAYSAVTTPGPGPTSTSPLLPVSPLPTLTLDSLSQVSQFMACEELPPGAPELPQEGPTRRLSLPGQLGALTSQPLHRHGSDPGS

| SMILES | IC50 [1] | IC50 [2] | IC50 [3] | further results |
| --- | --- | --- | --- | --- |
| NC[C@]1(c2ccsc2)[C@@H]2CCN(c3cnc4c(-c5cccc(Cl)c5Cl)n[nH]c4n3)C[C@@H]21 | 100 nM | 109 nM | 8 nM |  |
| Cn1cc2c(Cl)c(-c3n[nH]c4nc(N5C[C@@H]6[C@H](C5)[C@@]6(CN)c5ccccc5)cnc34)ccc2n1 | 70 nM | 5350 nM | 9 nM |  |
| NC[C@]1(c2ccccc2)[C@@H]2CN(c3nc4nc(Sc5cccnc5C(F)(F)F)cnc4[nH]3)C[C@@H]21 |  |  | > 8000 nM |  |
| N[C@]1(c2ccccc2)[C@@H]2CCN(c3nc4nc(Sc5cccnc5C(F)(F)F)cnc4[nH]3)C[C@@H]21 |  |  | 1410 nM |  |
| Cn1cc2c(Cl)c(-c3n[nH]c4nc(N5C[C@@H]6[C@H](C5)[C@@]6(CN)c5nccs5)cnc34)ccc2n1 | 60 nM | 13500 nM | 4 nM |  |
| Cc1csc([C@@]2(CN)[C@@H]3CCN(c4cnc5c(-c6ccc7nc(C)sc7c6Cl)n[nH]c5n4)C[C@@H]32)n1 | 4 nM | 24 nM | 2 nM | Papp at 4 h, 5 µM [4]: 4.36 ×10⁻⁶ cm/s |
| NC[C@]1(c2ccccn2)[C@@H]2CCN(c3cnc(Sc4cccnc4C(F)(F)F)c(N)n3)C[C@@H]21 | 20 nM |  | 68 nM |  |
| Cn1cc2c(Cl)c(-c3n[nH]c4nc(N5C[C@@H]6[C@H](C5)[C@@]6(CN)c5ccccn5)cnc34)ccc2n1 | 40 nM | 8960 nM | 5 nM |  |
| Cc1nc([C@@]2(CN)[C@@H]3CN(c4cnc5c(-c6ccc7nn(C)cc7c6Cl)n[nH]c5n4)C[C@@H]32)cs1 | 89 nM | > 30000 nM | 6 nM |  |
| Cc1csc([C@@]2(CN)[C@@H]3CCN(c4cnc5c(-c6cccc(Cl)c6Cl)n[nH]c5n4)C[C@@H]32)n1 (racemic) | 71 nM | 250 nM | 6 nM |  |
| NC[C@]1(c2ccccn2)[C@@H]2CCN(c3cnc4c(-c5cccc(Cl)c5Cl)n[nH]c4n3)C[C@@H]21 | 42 nM | 42 nM | 5 nM |  |
| Cc1csc([C@@]2(CN)[C@@H]3CN(c4cnc5c(-c6ccc7nn(C)cc7c6Cl)n[nH]c5n4)C[C@@H]32)n1 | 24 nM | > 30000 nM | 5 nM | Vd [5]: 1 L/kg; IC50 (KYSE-520 cell line): 166 nM; microsomal CLint at 1 µM [6]: 13.5 µL/min/mg; clearance [7]: 16.2 mL/min/kg; AUC at 24 h [8]: 0.01 µM·h; solubility kinetic [9]: 124 µM (≈ 61 µg/mL); microsomal CLint at 1 µM [10]: 25 µL/min/mg; AUC at 24 h [11]: 0.05 µM·h; Cmax [12]: 10 nM; Papp [13]: 9.2 ×10⁻⁶ cm/s; bioavailability [14]: 1.2%; half-life [15]: 1.9 h; solubility kinetic [16]: 168 µM (≈ 82.7 µg/mL); solubility kinetic [17]: 175 µM (≈ 86.1 µg/mL); AUC at 24 h [18]: 0.58 µM·h; Ratio [19]: 0.7 |
| N[C@]1(c2ccccc2)[C@@H]2CCN(c3cnc4c(-c5cccc(Cl)c5Cl)n[nH]c4n3)C[C@@H]21 |  |  | 1460 nM |  |
| NC[C@]1(c2ccsc2)[C@@H]2CCN(c3cnc4c(-c5cccnc5C(F)(F)F)n[nH]c4n3)C[C@@H]21 | > 666 nM | 5560 nM | 34 nM |  |
| Cc1csc([C@]2(CN)[C@@H]3CCN(c4cnc5c(-c6cccc(Cl)c6Cl)n[nH]c5n4)C[C@@H]32)n1 | 28 nM | 58 nM | 3 nM | Papp at 4 h, 5 µM [4]: 1.75 ×10⁻⁶ cm/s |
| N[C@]1(c2ccccc2)[C@@H]2CN(c3nc4nc(Sc5cccnc5C(F)(F)F)cnc4[nH]3)C[C@@H]21 |  |  | > 8000 nM |  |
| Cn1cc2c(Cl)c(-c3n[nH]c4nc(N5C[C@@H]6[C@H](C5)[C@@]6(CN)c5cnsn5)cnc34)ccc2n1 | 30 nM | > 30000 nM | 4 nM |  |
| NC[C@]1(c2ccccc2)[C@@H]2CCN(c3nc4nc(Sc5cccnc5C(F)(F)F)cnc4[nH]3)C[C@@H]21 | > 1330 nM |  | 94 nM |  |
| Cc1csc([C@@]2(CN)[C@@H]3CCN(c4cnc5c(-c6cccnc6C(F)(F)F)n[nH]c5n4)C[C@@H]32)n1 | > 666 nM | 5060 nM | 55 nM |  |

| SMILES | IC50 [1] | IC50 [2] | IC50 [3] | further results |
| --- | --- | --- | --- | --- |
| Cc1nc(N2CCC3(CC2)CO[C@@H](C)[C@H]3N)c(CO)nc1-c1cccc(Cl)c1Cl | 22 nM | 3350 nM |  | IC50 (KYSE-520 cell line): 4550 nM |
| Cc1csc([C@@]2(CN)[C@@H]3CN(c4cnc5c(-c6ccn7nccc7c6Cl)n[nH]c5n4)C[C@@H]32)n1 | 65 nM | 235 nM | 4 nM |  |
| Cc1ccn([C@@]2(CN)[C@@H]3CN(c4cnc5c(-c6ccc7nn(C)cc7c6Cl)n[nH]c5n4)C[C@@H]32)n1 | 444 nM | > 30000 nM | 49 nM |  |
| Cn1ccc([C@@]2(CN)[C@@H]3CN(c4cnc5c(-c6ccc7nn(C)cc7c6Cl)n[nH]c5n4)C[C@@H]32)n1 | 153 nM | > 30000 nM | 7 nM |  |
| Cc1csc([C@@]2(CN)[C@@H]3CCN(c4nc5nc(Sc6cccnc6C(F)(F)F)cnc5[nH]4)C[C@@H]32)n1 | 210 nM |  | 9 nM |  |
| NC[C@]1(c2ccsc2)[C@@H]2CCN(c3nc4nc(Sc5cccnc5C(F)(F)F)cnc4[nH]3)C[C@@H]21 | > 1330 nM |  | 54 nM |  |
| NC[C@]1(c2ccccc2)[C@@H]2CCN(c3cnc4c(-c5cccc(Cl)c5Cl)n[nH]c4n3)C[C@@H]21 | 260 nM | 389 nM | 9 nM |  |
| Cn1cc2c(Cl)c(-c3n[nH]c4nc(N5C[C@@H]6[C@H](C5)[C@@]6(CN)c5nc(C(F)(F)F)cs5)cnc34)ccc2n1 | 21 nM | > 30000 nM | 12 nM | IC50 (KYSE-520 cell line): 231 nM |
| Cc1csc([C@]2(CN)[C@@H]3CN(c4cnc5c(-c6cccc(Cl)c6Cl)n[nH]c5n4)CC[C@@H]32)n1 |  | 769 nM | 370 nM |  |
| Cc1csc([C@@]2(CN)[C@@H]3CN(c4cnc5c(-c6ccc7nc(C)sc7c6Cl)n[nH]c5n4)C[C@@H]32)n1 | 22 nM | 1660 nM | 5 nM |  |
| Cc1csc([C@@]2(CN)[C@@H]3CCN(c4cnc5c(-c6ccc7nn(C)cc7c6Cl)n[nH]c5n4)C[C@@H]32)n1 | 14 nM | 107 nM | 6 nM |  |
| Cn1cc2c(Cl)c(-c3n[nH]c4nc(N5C[C@@H]6[C@H](C5)[C@@]6(CN)c5nc(Cl)cs5)cnc34)ccc2n1 | 9 nM | 12300 nM | 5 nM | IC50 (KYSE-520 cell line): 183 nM |
| Cc1csc([C@@]2(CN)[C@@H]3CCN(c4cnc(Sc5cccnc5C(F)(F)F)c(N)n4)C[C@@H]32)n1 | 9 nM |  | 65 nM |  |
| NC[C@]1(c2ccccn2)[C@@H]2CCN(c3nc4nc(Sc5cccnc5C(F)(F)F)cnc4[nH]3)C[C@@H]21 | 477 nM |  | 17 nM |  |
| Cc1cccc([C@@]2(CN)[C@@H]3CN(c4cnc5c(-c6ccc7nn(C)cc7c6Cl)n[nH]c5n4)C[C@@H]32)n1 | 90 nM | 5870 nM | 4 nM |  |
| Cc1nnc([C@@]2(CN)[C@@H]3CN(c4cnc5c(-c6ccc7nn(C)cc7c6Cl)n[nH]c5n4)C[C@@H]32)s1 | 162 nM | > 30000 nM | 10 nM |  |
| Cc1csc([C@@]2(CN)[C@@H]3CCN(c4cnc5c(-c6ccn7nccc7c6Cl)n[nH]c5n4)C[C@@H]32)n1 | 22 nM | 12 nM | 3 nM |  |
| NC[C@]1(c2ccccc2)[C@@H]2CCN(c3cnc(Sc4cccnc4C(F)(F)F)c(N)n3)C[C@@H]21 |  |  | 360 nM |  |

— ChEMBL document CHEMBL5257132, “Discovery of a Novel Series of Potent SHP2 Allosteric Inhibitors” (ACS Med Chem Lett, 2023)
